Measured values published in US11999727B2 (Tango Therapeutics, Inc., priority 2020, dated 2024).
Like-named read-outs stand apart in the source and are kept apart here.

What was measured:
[1] = biological target: T1, PRMT5 (Homo sapiens, UniProt O14744); test: PRMT5 biochemical IC50 assay with no cofactor; conditions: PRMT5, no cofactor; read-out: No Cofactor/rel IC50
T1 construct: purchased Viva (custom protein)
Excerpt: Table 1 indicates IC50 values (μM) against PRMT5 for exemplary compounds in the presence of SAM as cofactor, with no cofactor, and with MTA as cofactor, respectively (columns 4-6). […] Ki values can be calculated from the IC50 values as described in the Examples section. As detailed in the Examples section, for the assay performed in the presence of SAM, IC50=Ki×1.5 (Ki=IC50/1.5).

[2] = tested on: HAP1 MTAP-deleted cell line; test: SDMA in-cell western assay, HAP1 MTAP-deleted; assay type: cell-based; conditions: for IC50: HAP1 MTAP-deleted, read-out: HAP1 MTAP deleted IC50; for MTAP intact/deleted ratio: IC50 ratio HAP1 MTAP-intact / HAP1 MTAP-deleted
Summary of the method: (§1)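 Readout: in-cell western detection of SDMA. Cells: HAP1 expressing endogenous MTAP and an MTAP-null HAP1 counterpart. Output: IC50.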

[3] = biological target: T1, PRMT5; test: PRMT5 biochemical IC50 assay with MTA as cofactor; conditions: PRMT5, MTA as cofactor; read-out: MTA IC50
[4] = tested on: HAP1 MTAP-deleted cell line; test: Viability assay, MTAP-deleted cell line; assay type: cell-based; conditions: Homo sapiens, HAP1, viability assay, MTAP-deleted cell line; read-out: HAP1 MTAP deleted viability
Excerpt: Table 1 additionally indicates IC50 values in a viability assay for the MTAP-deleted cell line (column 10), indicating the effect of treatment with compound on cell survival.

[5] = biological target: T1, PRMT5; test: PRMT5 biochemical IC50 assay with SAM as cofactor; conditions: PRMT5, SAM as cofactor; read-out: SAM IC50
[6] = tested on: HAP1 MTAP-intact cell line; test: SDMA in-cell western assay, HAP1 MTAP-intact; assay type: cell-based; conditions: HAP1 MTAP-intact, read-out: MTAP HAP1 intact IC50
Summary of the method: as §1

[7] = Homo sapiens, HAP1, SDMA in-cell western

T1 sequence (O14744 whole entry): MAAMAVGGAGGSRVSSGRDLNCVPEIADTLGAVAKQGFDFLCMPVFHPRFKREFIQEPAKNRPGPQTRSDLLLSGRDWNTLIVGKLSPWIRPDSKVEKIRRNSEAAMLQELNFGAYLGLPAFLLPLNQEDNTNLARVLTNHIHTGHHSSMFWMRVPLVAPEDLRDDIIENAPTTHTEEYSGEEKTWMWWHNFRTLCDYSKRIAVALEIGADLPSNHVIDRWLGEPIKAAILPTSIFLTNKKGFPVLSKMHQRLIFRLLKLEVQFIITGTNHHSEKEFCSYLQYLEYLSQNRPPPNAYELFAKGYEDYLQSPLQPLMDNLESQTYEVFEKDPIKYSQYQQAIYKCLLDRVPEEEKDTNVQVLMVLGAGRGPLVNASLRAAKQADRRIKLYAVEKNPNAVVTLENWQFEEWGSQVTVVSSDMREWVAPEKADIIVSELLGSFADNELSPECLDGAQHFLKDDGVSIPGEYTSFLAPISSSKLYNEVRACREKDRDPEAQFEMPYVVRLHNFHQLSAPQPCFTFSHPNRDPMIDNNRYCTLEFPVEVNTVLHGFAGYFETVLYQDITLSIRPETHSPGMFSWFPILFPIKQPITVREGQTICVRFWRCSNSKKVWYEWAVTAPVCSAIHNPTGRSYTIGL
T1 sequence (Q9BQA1 whole entry partner): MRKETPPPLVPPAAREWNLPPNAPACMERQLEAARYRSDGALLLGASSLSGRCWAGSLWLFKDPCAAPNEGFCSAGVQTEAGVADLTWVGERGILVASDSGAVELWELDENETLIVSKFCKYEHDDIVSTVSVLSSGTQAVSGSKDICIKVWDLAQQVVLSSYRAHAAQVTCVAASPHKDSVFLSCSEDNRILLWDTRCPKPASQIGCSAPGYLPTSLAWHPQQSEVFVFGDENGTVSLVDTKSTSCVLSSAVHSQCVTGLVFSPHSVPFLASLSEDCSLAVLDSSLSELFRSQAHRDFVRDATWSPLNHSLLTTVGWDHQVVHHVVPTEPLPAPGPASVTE

Row | Structure (SMILES) | IC50 [1] | IC50 [2, 7] | MTAP intact/deleted ratio ([2]; SDMA in-cell western) | IC50 [3] | IC50 [4] | IC50 [5] | IC50 [6, 7] | IC50 ([2]; SDMA in-cell western) | IC50 ([6]; SDMA in-cell western)
1 | Cc1cc([C@@H]2CC[C@@H](C)CN2C(=O)C(=O)Nc2cncc(C(N)=O)c2)cc(C)c1O (single isomer, unassigned) [Compound 335] | 0.05 to 0.5 µM | < 0.1 µM | A (an IC50 ratio greater than or equal to 10 fold) | < 0.05 µM | 1 to 10 µM | 0.05 to 0.5 µM | > 1 µM |  | 
2 | Cc1cc(NC(=O)C(=O)N2C[C@H](C)C[C@@H](C)[C@H]2c2ccccc2)cnc1N (single isomer, unassigned) [Compound 339] | 0.05 to 0.5 µM | 0.1 to 1 µM | A (an IC50 ratio greater than or equal to 10 fold) | < 0.05 µM | > 10 µM | 0.05 to 0.5 µM | > 1 µM |  | 
3 | Cc1cc(NC(=O)C(=O)N2CCCC[C@H]2C2CCCC2)cnc1N (single isomer, unassigned) [Compound 340] | 0.05 to 0.5 µM | 0.1 to 1 µM | A (an IC50 ratio greater than or equal to 10 fold) | < 0.05 µM | 1 to 10 µM | 0.05 to 0.5 µM | > 1 µM |  | 
4 | C[C@@H]1CC[C@@H](c2ccc3c(c2)C[C@H](C)O3)N(C(=O)C(=O)Nc2cncc(C(N)=O)c2)C1 (single isomer, unassigned) [Compound 345] | 0.05 to 0.5 µM | 0.1 to 1 µM | A (an IC50 ratio greater than or equal to 10 fold) | < 0.05 µM | 1 to 10 µM | 0.05 to 0.5 µM | > 1 µM |  | 
5 | CC(=O)N1CCC(c2cccc([C@@H]3CC[C@@H](C)CN3C(=O)C(=O)Nc3cncc(C(N)=O)c3)c2)CC1 (single isomer, unassigned) [Compound 346] | 0.05 to 0.5 µM | 0.1 to 1 µM | A (an IC50 ratio greater than or equal to 10 fold) | < 0.05 µM | 1 to 10 µM | 0.05 to 0.5 µM | > 1 µM |  | 
6 | COc1ncc(NC(=O)C(=O)N2CCCCC2C2CCCCC2)cc1C(N)=O (single isomer, unassigned) [Compound 347, 5-(2-(2-cyclohexylpiperidin-1-yl)-2-oxoacetamido)-2-methoxynicotinamide] | 0.05 to 0.5 µM |  | A (an IC50 ratio greater than or equal to 10 fold) | < 0.05 µM | 1 to 10 µM | 0.05 to 0.5 µM |  | 0.1 to 1 µM | > 1 µM
7 | CNc1cccc([C@@H]2CC[C@@H](C)CN2C(=O)C(=O)Nc2cncc(C(N)=O)c2)c1 (single isomer, unassigned) [Compound 348] | 0.05 to 0.5 µM | < 0.1 µM | A (an IC50 ratio greater than or equal to 10 fold) | < 0.05 µM | 1 to 10 µM | 0.05 to 0.5 µM | > 1 µM |  | 
8 | C[C@H]1CC[C@H](c2ccc(O)nc2)N(C(=O)C(=O)Nc2cncc(C(N)=O)c2)C1 (single isomer, unassigned) [Compound 350] | 0.05 to 0.5 µM | > 1 µM | C (an IC50 ratio of less than 3 fold) | < 0.05 µM | > 10 µM | 0.05 to 0.5 µM | > 1 µM |  | 
9 | C[C@@H]1CC[C@@H](c2ccc(O)nc2)N(C(=O)C(=O)Nc2cncc(C(N)=O)c2)C1 (single isomer, unassigned) [Compound 351] | > 0.5 µM | > 1 µM | C (an IC50 ratio of less than 3 fold) | > 0.5 µM | > 10 µM | > 0.5 µM | > 1 µM |  | 
10 | N#C[C@H]1CCN(C(=O)C(=O)Nc2cncc(C(N)=O)c2)[C@@H](c2ccccc2)C1 (single isomer, unassigned) [Compound 352] | 0.05 to 0.5 µM | 0.1 to 1 µM | A (an IC50 ratio greater than or equal to 10 fold) | < 0.05 µM | > 10 µM | 0.05 to 0.5 µM | > 1 µM |  | 
11 | N#C[C@@H]1CCN(C(=O)C(=O)Nc2cncc(C(N)=O)c2)[C@H](c2ccccc2)C1 (single isomer, unassigned) [Compound 353] | > 0.5 µM | > 1 µM | C (an IC50 ratio of less than 3 fold) | > 0.5 µM | > 10 µM | > 0.5 µM | > 1 µM |  | 
12 | C[C@H]1CC[C@H](c2ccc(O)c(F)c2)N(C(=O)C(=O)Nc2cncc(C(N)=O)c2)C1 (single isomer, unassigned) [Compound 354] | < 0.05 µM | < 0.1 µM | A (an IC50 ratio greater than or equal to 10 fold) | < 0.05 µM | < 1 µM | 0.05 to 0.5 µM | 0.1 to 1 µM |  | 
13 | C[C@@H]1CC[C@@H](c2ccc(O)c(F)c2)N(C(=O)C(=O)Nc2cncc(C(N)=O)c2)C1 (single isomer, unassigned) [Compound 355] | > 0.5 µM | > 1 µM | C (an IC50 ratio of less than 3 fold) | > 0.5 µM | > 10 µM | > 0.5 µM | > 1 µM |  | 
14 | CNc1cccc([C@H]2CCCCN2C(=O)C(=O)Nc2cnc(N)c(C)c2)c1 (single isomer, unassigned) [Compound 356] | 0.05 to 0.5 µM | < 0.1 µM | A (an IC50 ratio greater than or equal to 10 fold) | < 0.05 µM | 1 to 10 µM | 0.05 to 0.5 µM | > 1 µM |  | 
15 | CNc1cccc([C@@H]2CCCCN2C(=O)C(=O)Nc2cnc(N)c(C)c2)c1 (single isomer, unassigned) [Compound 357] | > 0.5 µM | 0.1 to 1 µM | A (an IC50 ratio greater than or equal to 10 fold) | 0.05 to 0.5 µM | > 10 µM | 0.05 to 0.5 µM | > 1 µM |  | 
16 | CN(C)c1cccc([C@@H]2CCCCN2C(=O)C(=O)Nc2cncc(C(N)=O)c2)c1 (single isomer, unassigned) [Compound 365] | 0.05 to 0.5 µM | < 0.1 µM | A (an IC50 ratio greater than or equal to 10 fold) | < 0.05 µM | 1 to 10 µM | 0.05 to 0.5 µM | > 1 µM |  | 
17 | CN(C)c1cccc([C@H]2CCCCN2C(=O)C(=O)Nc2cncc(C(N)=O)c2)c1 (single isomer, unassigned) [Compound 366] | > 0.5 µM | > 1 µM | C (an IC50 ratio of less than 3 fold) | 0.05 to 0.5 µM | > 10 µM | > 0.5 µM | > 1 µM |  | 
18 | Cc1c(NC(=O)C(=O)N2C[C@H](C)CC[C@H]2c2ccccc2)cnc(N)c1C (single isomer, unassigned) [Compound 367] | > 0.5 µM | > 1 µM | C (an IC50 ratio of less than 3 fold) | 0.05 to 0.5 µM | > 10 µM | > 0.5 µM | > 1 µM |  | 
19 | Cc1c(NC(=O)C(=O)N2C[C@@H](C)CC[C@@H]2c2ccccc2)cnc(N)c1C (single isomer, unassigned) [Compound 368] | 0.05 to 0.5 µM | < 0.1 µM | A (an IC50 ratio greater than or equal to 10 fold) | < 0.05 µM | 1 to 10 µM | 0.05 to 0.5 µM | > 1 µM |  | 
20 | COc1ncc(NC(=O)C(=O)N2C[C@@H](C)CC[C@@H]2C2CCCCC2)cc1C(N)=O (single isomer, unassigned) [Compound 369] | 0.05 to 0.5 µM | 0.1 to 1 µM | A (an IC50 ratio greater than or equal to 10 fold) | < 0.05 µM | 1 to 10 µM | 0.05 to 0.5 µM | > 1 µM |  | 
21 | C[C@H]1CC[C@H](c2cccc(N(C)C)c2)N(C(=O)C(=O)Nc2cncc(C(N)=O)c2)C1 (single isomer, unassigned) [Compound 374] | > 0.5 µM | > 1 µM | C (an IC50 ratio of less than 3 fold) | > 0.5 µM | > 10 µM | > 0.5 µM | > 1 µM |  | 
22 | C[C@@H]1CC[C@@H](c2cccc(N(C)C)c2)N(C(=O)C(=O)Nc2cncc(C(N)=O)c2)C1 (single isomer, unassigned) [Compound 375] | 0.05 to 0.5 µM | < 0.1 µM | A (an IC50 ratio greater than or equal to 10 fold) | < 0.05 µM | 1 to 10 µM | 0.05 to 0.5 µM | > 1 µM |  | 
23 | C[C@H]1CC[C@H](c2ccc3c(c2)C[C@H](C)O3)N(C(=O)C(=O)Nc2cncc(C(N)=O)c2)C1 (single isomer, unassigned) [Compound 376] | > 0.5 µM | > 1 µM | C (an IC50 ratio of less than 3 fold) | > 0.5 µM | > 10 µM | > 0.5 µM | > 1 µM |  | 
